Earlier results in US11008566B2, “Method for obtaining antibody” (Chiome Bioscience Inc., priority 2016, dated 2021).

Details: antibody drugs, Non Patent Literatures 1 and 2

## Lucentis: antibody drug (registered trademark), high-affinity antibody
  Kd: 0.046 nM
